Here are results for six molecules from ChEMBL document CHEMBL1150970, “Starfish saponins. 55. Isolation, structure elucidation, and biological activity of the steroid oligoglycosides from an Antarctic starfish of the family Asteriidae” (J Nat Prod, 1998).

The experiment is described as follows: Cytotoxicity against human NSCLC-L16 cells. The format is functional, cell-based.

The IC50 is the point on the concentration scale where inhibition reaches its midpoint. Read a low IC50 as greater potency in that assay. The molecule `CC(C)CC(=O)C[C@](C)(O)[C@H]1CC[C@H]2[C@@H]3C[C@H](O[C@@H]4O[C@H](C)[C@@H](O)[C@H](O[C@@H]5O[C@H](C)[C@@H](O[C@@H]6O[C@H](CO)[C@H](O)[C@H](O)[C@H]6O[C@@H]6O[C@H](C)[C@H](O)[C@H](O[C@@H]7O[C@H](CO)[C@H](O)[C@H](O)[C@H]7O)[C@H]6O)[C@H](O)[C@H]5O[C@@H]5O[C@H](C)[C@@H](O)[C@H](O)[C@H]5O)[C@H]4C)[C@H]4C[C@@H](OS(=O)(=O)[O-])CC[C@]4(C)C3=CC[C@@]21C.[Na+]` [ASTERIIDOSIDE A] displayed an IC50 greater than 30 µg/mL.

For `C=C(CC[C@](C)(O)[C@H]1CC[C@H]2[C@@H]3C[C@H](O[C@@H]4O[C@H](C)[C@@H](O)[C@H](O[C@@H]5OC[C@@H](O[C@@H]6O[C@H](C)[C@H](O)[C@H](O)[C@H]6O[C@@H]6OC[C@H](O)[C@H](O[C@@H]7O[C@H](CO)[C@H](O)[C@H](O)[C@H]7O)[C@H]6O)[C@H](O)[C@H]5O[C@@H]5O[C@H](C)[C@@H](O)[C@H](O)[C@H]5O)[C@H]4C)[C@H]4C[C@@H](OS(=O)(=O)[O-])CC[C@]4(C)C3=CC[C@@]21C)C(C)C.[Na+]` [ASTERIIDOSIDE D], 11.4 µg/mL corresponded to half-maximal inhibition (IC50).

The molecule `CC(C)=CCC[C@](C)(O)[C@H]1CC[C@H]2[C@@H]3C[C@H](O[C@@H]4O[C@H](C)[C@@H](O)[C@H](O[C@@H]5OC[C@@H](O[C@@H]6O[C@H](C)[C@H](O)[C@H](O)[C@H]6O[C@@H]6OC[C@H](O)[C@H](O[C@@H]7O[C@H](CO)[C@H](O)[C@H](O)[C@H]7O)[C@H]6O)[C@H](O)[C@H]5O[C@@H]5O[C@H](C)[C@@H](O)[C@H](O)[C@H]5O)[C@H]4C)[C@H]4C[C@@H](OS(=O)(=O)[O-])CC[C@]4(C)C3=CC[C@@]21C.[Na+]` [ASTERIIDOSIDE E] came in with a concentration for half-maximal inhibition (IC50) of 18.1 µg/mL.

Consider `C[C@@H](C/C=C/[C@@H](C)[C@H]1[C@@H](O)[C@@H](O)[C@@H]2[C@]1(C)CC[C@@H]1[C@@]3(C)CC[C@H](O[C@@H]4OC[C@@H](O)[C@H](O)[C@H]4O)C[C@@H]3[C@@H](O)C[C@]12O)CO[C@@H]1OC[C@@H](O)[C@H](O)[C@H]1O` [ASTERIIDOSIDE F], for which the IC50 is greater than 30 µg/mL.

Molecule `CC(C)[C@H](/C=C/[C@@H](C)[C@H]1C[C@@H](O)[C@@H]2[C@]1(C)CC[C@@H]1[C@@]3(C)CC[C@H](O[C@@H]4OC[C@@H](O)[C@H](O)[C@H]4O)C[C@@H]3[C@@H](O)[C@@H](O)[C@]12O)O[C@@H]1OC[C@@H](O)[C@H](OS(=O)(=O)[O-])[C@H]1O.[Na+]` [ASTERIIDOSIDE I] yielded a half-maximal inhibitory concentration (IC50) greater than 30 µg/mL.

Regarding `CC(C)[C@@H](/C=C/[C@@H](C)[C@H]1C[C@H](O)[C@@H]2[C@]1(C)CC[C@@H]1[C@@]3(C)CC[C@H](O[C@@H]4OC[C@@H](O)[C@H](O)[C@H]4O)C[C@@H]3[C@H](O)C[C@]12O)COS(=O)(=O)[O-].[Na+]` [ASTERIIDOSIDE L], the IC50 is greater than 30 µg/mL.
